# Test results taken from US11026896B2, “Transdermal penetrant formulations containing cannabidiol” (AMPERSAND BIOPHARMACEUTICALS, INC., priority 2019, dated 2021).
# Experiment: Plasma pharmacokinetic profile of CBD after a single topical dose to CD-1 mice (In-life Study 1901002-01, LC-MS/MS)
# Format: in vivo
# Conditions: single topical dose 0.1 mL, mouse plasma
# Description: The objective of this study was to determine the plasma pharmacokinetic (PK) profile of test article cannabidiol (CBD) following the administration of a single topical dose to CD-1 mice. The work was conducted at Alliance Pharma with a title of In-life Study 1901002-01. Although the in-life study was not intended to be conducted in compliance with Good Laboratory Practice regulations, the study was conducted in accordance with Alliance Pharma's IACUC (Institutional Animal Care and Use Committee) Protocol No. 2016-02_V4 and Alliance Pharma's standard operating procedures (SOPs). In addition, the pharmacokinetic analyses of mouse plasma samples were conducted in accordance with Alliance Pharma SOPs.
# A total of 72 mouse (CD-1) plasma samples were transferred from Alliance Pharma's in-life facility located in Malvern, Pa. to the Bioanalytical department for pharmacokinetic analysis. The concentration of CBD in these 72 plasma samples was measured using high-performance liquid chromatography (HPLC) with tandem mass spectrometry (MS/MS) detection.
# In-life Study Design: In-life Study 1901002-01 was performed at the in-life testing facility at Alliance Pharma. Four (4) groups of 21 CD-1 mice each (84 total) were administered a single topical dose of CBD. Mice in Group 1 were administered Formulation A at a strength of 2.5% CBD. Mice in Group 2 were administered Formulation B at the same strength of 2.5% CBD. Mice in Group 3 were administered Formulation C at a strength of 5% CBD, and mice in Group 4 were administered Formulation C at a strength of 2.5% CBD. The treatment scheme is summarized below.
# Animals in each group received topical administration of either 2.5% o 5% CBD using a 1 ml syringe to draw up exactly 100 μl. Compound was applied in the shaved area only. Each group received a different formulation of the compound.
# Sample Collection, Processing, and Shipment: Blood samples were collected at the in-life facility at the following time points: 0.25, 0.5, 1, 2, 4, and 8 hours post-dose from 72 mice in Groups 1 through 4 (18 from each treatment group). Target volume was less than or equal to 0.2 ml. The blood was collected via trunk puncture into tubes using K2 EDTA as an anticoagulant. The collected blood samples were kept on wet ice before being centrifuged. Blood samples were centrifuged as soon as possible after blood collection at approximately 10,000 rpm for about 10 minutes to separate the plasma. Approximately 0.2 mL of each plasma sample was transferred into labeled Eppendorf tubes. Each tube was stored in a freezer set to −20° C. or lower. No blood was collected from 12 (3 from each treatment group) of the 84 mice enrolled in the in-life study; thus, the total number of plasma samples that were transferred to the Alliance Pharma Bioanalytical department for bioanalysis was 72.
# Assay Procedures: For analysis of CBD, a 25-μL aliquot of each study sample was mixed with 25 μL of acetonitrile/water (50:50, v/v). Samples were then extracted by protein precipitation using acetonitrile containing the internal standard, tolbutamide (25 ng/mL). A portion of the supernatant was diluted in deionized water and used for the analysis of CBD.
# Data Acquisition and Processing: The LC-MS/MS data acquisition was performed on a Shimadzu Nexera X2 LC system coupled with an AB SCIEX Triple Quad 5500 mass spectrometer. Chromatograms were integrated using Analyst 1.6.2 software. A weighted (1/x^2, x=concentration) linear regression was used to generate the calibration curve for CBD. The concentration of CBD was calculated using the peak area ratio of analyte to internal standard based on the standard curve. Mean, standard deviation, precision, accuracy, and assay variability were calculated using Microsoft Excel software.
# Pharmacokinetic Analysis: Software—The PK parameters were determined using a non-compartmental analysis tool, namely, Phoenix WnNonlin 6.3 software (Pharsight Corporation, St. Louis, Mo.). […]
# [1] = Group 1, AEM.CBD.006 Formulation A 2.5% CBD, mean dose 78.69 mg/kg
# [2] = Group 2, AEM.CBD.007 Formulation B 2.5% CBD, mean dose 76.61 mg/kg
# [3] = Group 3, KBM.CBD.010 Formulation C 5% CBD, mean dose 155.24 mg/kg
# [4] = Group 4, KBM.CBD.011 Formulation C 2.5% CBD, mean dose 75.76 mg/kg
smiles,measurement,setting,value
C=C(C)[C@@H]1CCC(C)=C[C@H]1c1c(O)cc(CCCCC)cc1O [Cannabidiol],AUCinf,[1],1865 ng·h/mL
same,AUClast,[1],1758 ng·h/mL
same,Cmax,[1],427.149 ng/mL
same,t1/2,[1],1.78 h
same,tmax,[1],2.00 h
same,AUCinf,[2],1647 ng·h/mL
same,AUClast,[2],1563 ng·h/mL
same,Cmax,[2],360.351 ng/mL
same,t1/2,[2],1.70 h
same,tmax,[2],2.00 h
same,AUCinf,[3],3533 ng·h/mL
same,AUClast,[3],3067 ng·h/mL
same,Cmax,[3],602.168 ng/mL
same,tmax,[3],4.00 h
same,AUCinf,[4],1514 ng·h/mL
same,AUClast,[4],1410 ng·h/mL
same,Cmax,[4],331.560 ng/mL
same,t1/2,[4],1.92 h
same,tmax,[4],1.00 h
